Test results published in patent US12214092B2, “Systems and methods for treating biological fluids” (Cerus Corporation, priority 2017, dated 2025).

What was measured:
[1] = system: platelets; assay: Platelet quality, platelets in 35% plasma/65% PAS III, amotosalen 30-110 μM, 340 nm device ~7.2 J/cm^2; assay type: cell-based
[2] = S-59 photoconversion and photoproducts in platelets in 65% PAS III/35% plasma, 150 μM S-59, HPLC; conditions: for % Residual S-59: 3x (~10.8 J/cm^2)
Procedure: Platelets collected in PAS/Plasma (65% PAS III/35% Plasma) were pooled and split into three 285 mL units for the study. Amotosalen (S-59) was added to a concentration of 150 μM, and the units were illuminated one time (˜3.6 J/cm^2 total dose), two times (˜7.2 J/cm^2 total dose), or three times (˜10.8 J/cm^2 total dose) with the narrow band 340 nm LEDs or 365 nm LEDs using the device of Example 1, or with the INT-100 device. Efficiency of S-59 photoconversion, as well as photoproducts formation, was assessed post-UVA illumination by HPLC as in previous Examples.
HPLC analysis of post-illumination samples was used to determine area counts and relative levels for photoproducts generated from the various treatment conditions.

Cc1oc2c(C)c3oc(=O)cc(C)c3cc2c1COCCN [S-59, 3-(2-aminoethoxymethyl)-2,5,9-trimethylfuro[3,2-g]chromen-7-one]
pH at 37° C. ([1]; 60 μM, Post-UV): 6.83
pO2 at 37° C. ([1]; 60 μM, Post-UV): 8.0 mm Hg
Glucose ([1]; 60 μM, Pre-UV): 5.16 mmol/L
LDH ([1]; 60 μM, Pre-UV): 7.66 LDH IU/10^11 platelets
Lactate ([1]; 60 μM, Pre-UV): 6.72 mmol/L
Platelet counts ([1]; 60 μM, Pre-UV): 1344 x10^3 cells/μL
Platelet lysis ([1]; 60 μM, Pre-UV): 2.68%
pCO2 at 37° C. ([1]; 60 μM, Pre-UV): 33.7 mm Hg
pH at 22° C. ([1]; 60 μM, Pre-UV): 7.08
pH at 37° C. ([1]; 60 μM, Pre-UV): 6.85
pO2 at 37° C. ([1]; 60 μM, Pre-UV): 29.4 mm Hg
Glucose ([1]; 90 μM, D4): 2.97 mmol/L
Lactate ([1]; 90 μM, D4): 9.83 mmol/L
Platelet counts ([1]; 90 μM, D4): 1373 x10^3 cells/μL
Platelet lysis ([1]; 90 μM, D4): 3.23%
pCO2 at 37° C. ([1]; 90 μM, D4): 26.9 mm Hg
pH at 22° C. ([1]; 90 μM, D4): 7.10
pH at 37° C. ([1]; 90 μM, D4): 6.87
pO2 at 37° C. ([1]; 90 μM, D4): 25.7 mm Hg
Glucose ([1]; 90 μM, D7): 0 mmol/L
LDH ([1]; 90 μM, D7): 8.67 LDH IU/10^11 platelets
Lactate ([1]; 90 μM, D7): 14.62 mmol/L
Platelet counts ([1]; 90 μM, D7): 1384 x10^3 cells/μL
Platelet lysis ([1]; 90 μM, D7): 3.53%
pCO2 at 37° C. ([1]; 90 μM, D7): 22.6 mm Hg
pH at 22° C. ([1]; 90 μM, D7): 7.10
pH at 37° C. ([1]; 90 μM, D7): 6.87
pO2 at 37° C. ([1]; 90 μM, D7): 61.8 mm Hg
Glucose ([1]; 90 μM, Post-UV): 4.95 mmol/L
Lactate ([1]; 90 μM, Post-UV): 7.11 mmol/L
Platelet counts ([1]; 90 μM, Post-UV): 1313 x10^3 cells/μL
Platelet lysis ([1]; 90 μM, Post-UV): 2.64%
pCO2 at 37° C. ([1]; 90 μM, Post-UV): 33.7 mm Hg
pH at 22° C. ([1]; 90 μM, Post-UV): 7.06
pH at 37° C. ([1]; 90 μM, Post-UV): 6.83
pO2 at 37° C. ([1]; 90 μM, Post-UV): 29.3 mm Hg
Glucose ([1]; 90 μM, Pre-UV): 4.9 mmol/L
Lactate ([1]; 90 μM, Pre-UV): 6.95 mmol/L
Platelet counts ([1]; 90 μM, Pre-UV): 1344 x10^3 cells/μL
Platelet lysis ([1]; 90 μM, Pre-UV): 2.76%
pCO2 at 37° C. ([1]; 90 μM, Pre-UV): 34.9 mm Hg
pH at 22° C. ([1]; 90 μM, Pre-UV): 7.06
pH at 37° C. ([1]; 90 μM, Pre-UV): 6.84
pO2 at 37° C. ([1]; 90 μM, Pre-UV): 9.0 mm Hg
Platelet counts ([1]; 110 μM, D4): 0 x10^3 cells/μL
Platelet counts ([1]; 110 μM, D7): 0 x10^3 cells/μL
Glucose ([1]; 110 μM, Post-UV): 4.88 mmol/L
LDH ([1]; 110 μM, Post-UV): 6.97 LDH IU/10^11 platelets
Lactate ([1]; 110 μM, Post-UV): 7.18 mmol/L
Platelet counts ([1]; 110 μM, Post-UV): 1335 x10^3 cells/μL
Platelet lysis ([1]; 110 μM, Post-UV): 2.72%
pCO2 at 37° C. ([1]; 110 μM, Post-UV): 34.2 mm Hg
pH at 22° C. ([1]; 110 μM, Post-UV): 7.05
pH at 37° C. ([1]; 110 μM, Post-UV): 6.83
pO2 at 37° C. ([1]; 110 μM, Post-UV): 16.1 mm Hg
Glucose ([1]; 110 μM, Pre-UV): 4.95 mmol/L
LDH ([1]; 110 μM, Pre-UV): 7.42 LDH IU/10^11 platelets
Lactate ([1]; 110 μM, Pre-UV): 6.85 mmol/L
Platelet counts ([1]; 110 μM, Pre-UV): 1308 x10^3 cells/μL
Platelet lysis ([1]; 110 μM, Pre-UV): 2.65%
pCO2 at 37° C. ([1]; 110 μM, Pre-UV): 33.7 mm Hg
pH at 22° C. ([1]; 110 μM, Pre-UV): 7.07
pH at 37° C. ([1]; 110 μM, Pre-UV): 6.84
pO2 at 37° C. ([1]; 110 μM, Pre-UV): 6.3 mm Hg
S-59 concentration post-illumination ([2]; 340 nm LED, ~3.6 J/cm^2): 9 µM
S-59 concentration post-illumination ([2]; 340 nm LED, ~7.2 J/cm^2): 2 µM
S-59 concentration post-illumination ([2]; 340 nm LED, ~10.8 J/cm^2, <LOQ): 0.98 µM
HPLC area counts ([2]; 340 nm, 0 J/cm^2): 1826
% Residual S-59 ([2]; 340 nm): 0.5%
HPLC area counts ([2]; 340 nm, 3.6 J/cm^2): 106
HPLC area counts ([2]; 340 nm, 7.2 J/cm^2): 24
HPLC area counts ([2]; 340 nm, 10.8 J/cm^2): 11
S-59 concentration post-illumination ([2]; 365 nm LED, ~3.6 J/cm^2): 42 µM
S-59 concentration post-illumination ([2]; 365 nm LED, ~7.2 J/cm^2): 15 µM
S-59 concentration post-illumination ([2]; 365 nm LED, ~10.8 J/cm^2): 7 µM
HPLC area counts ([2]; 365 nm, 0 J/cm^2): 1753
% Residual S-59 ([2]; 365 nm): 4.9%
HPLC area counts ([2]; 365 nm, 3.6 J/cm^2): 514
HPLC area counts ([2]; 365 nm, 7.2 J/cm^2): 183
HPLC area counts ([2]; 365 nm, 10.8 J/cm^2): 84
HPLC area counts ([2]; INT 100, 0 J/cm^2): 1753
% Residual S-59 ([2]; INT 100): 3.1%
HPLC area counts ([2]; INT 100, 3.6 J/cm^2): 396
HPLC area counts ([2]; INT 100, 7.2 J/cm^2): 129
HPLC area counts ([2]; INT 100, 10.8 J/cm^2): 56
S-59 concentration post-illumination ([2]; INT-100, ~3.6 J/cm^2): 32 µM
S-59 concentration post-illumination ([2]; INT-100, ~7.2 J/cm^2): 11 µM
S-59 concentration post-illumination ([2]; INT-100, ~10.8 J/cm^2): 5 µM
